# Measured values: US20110223157A1, “METHODS FOR THE TREATMENT OF NON-HODGKIN'S LYMPHOMAS USING LENALIDOMIDE, AND GENE AND PROTEIN BIOMARKERS AS A PREDICTOR” (priority 2010, published 2011)
# Like-named read-outs stand apart in the source and are kept apart here.
# Tests used:
# Assay type in all cases: cell-based
# [1] = test system: NFκB p50; test: NFκB p50 activity, Active Motif transcription factor assay on nuclear extracts of treated DLBCL cells; conditions: 2 days; for inhibition at 1 µM / inhibition at 10 µM: read-out: P50 Inhibition (%) mean ± SD
# Procedure: (§1) DLBCL cells were treated with lenalidomide or an IKK1/2 dual inhibitor (used as a positive inhibitor control) for 2 days. NFκB activity was examined with Active Motif transcription factor assay using nuclear extracts from cells following treatment.
# [2] = test system: DLBCL cell lines; test: Proliferation of DLBCL cells in vitro, 3H-thymidine incorporation
# Procedure: A panel of DLBCL cell lines of various cytogenetic features was tested for their sensitivity to the antiproliferative activity of lenalidomide. Cells were treated with lenalidomide for 5 days at 37° C.; proliferation of cells was determined using ^3H-thymidine incorporation method. Results of 3 independent experiments are shown (mean±SD). […] ABC-subtype cells appear more sensitive to the antiproliferative effect than other subtype cells including GCB-DLBCL and PMBL cells.
# [3] = test system: NFκB p65; test: NFκB p65 activity, Active Motif transcription factor assay on nuclear extracts of treated DLBCL cells; conditions: 2 days; for inhibition at 1 µM / inhibition at 10 µM: read-out: P65 Inhibition (%) mean ± SD
# Procedure: as §1
# [4] = 48 h, KARPS-1160p cells (PBML), 1 μM
# [5] = Homo sapiens, OCI-Ly3, 48 h, OCI-Ly3 cells, 1 μM
# [6] = Homo sapiens, OCI-Ly3, 48 h, OCI-Ly3 cells
# [7] = Homo sapiens, OCI-Ly10, 48 h, OCI-Ly10 cells, 1 μM
# [8] = Homo sapiens, OCI-Ly10, 48 h, OCI-Ly10 cells
# [9] = Homo sapiens, TMD8, 48 h, TMD8 cells, 1 μM
# [10] = Homo sapiens, TMD8, 48 h, TMD8 cells
smiles,measurement,setting,value
"Nc1cccc2c1CN(C1CCC(=O)NC1=O)C2=O (stereo not drawn) [lenalidomide, 3-(4-amino-1-oxo-1,3-dihydro-isoindol-2-yl)-piperidine-2,6-dione]",Effect on NFκB p50 activity,"[1]; 1 μM, U2932 cells, p<0.05",significantly inhibits
same,inhibition at 1 µM,[1]; [4],14.5 ± 0.95%
same,inhibition at 10 µM,"[1]; 48 h, KARPS-1160p cells (PBML)",16.4 ± 0.28%
same,inhibition at 1 µM,"[1]; 48 h, RIVA cells, 1 μM",11.1 ± 11.7%
same,inhibition at 10 µM,"[1]; 48 h, RIVA cells",28.6 ± 21%
same,inhibition at 1 µM,"[1]; 48 h, U2392 cells, 1 μM",32.5 ± 14.3%
same,inhibition at 1 µM,[1]; [5],-10.3 ± 19.7%
same,inhibition at 10 µM,[1]; [6],-9.5 ± 19.1%
same,inhibition at 1 µM,[1]; [7],22.7 ± 18.8%
same,inhibition at 10 µM,[1]; [8],22.6 ± 14.1%
same,inhibition at 1 µM,[1]; [9],14.4 ± 16.4%
same,inhibition at 10 µM,[1]; [10],48.5 ± 40.2%
same,Effect on proliferation,"[2]; ABC cell lines U2392, RIVA, TMD8 and OCI-Ly10",significantly inhibits
same,Starting concentration of significant (p<0.05) inhibition of proliferation,"[2]; several DLBCL lines, particularly ABC-subtype Riva, U2932, TMD8, OCI-Ly10, 5 days at 37° C.",0.1 to 1 µM
same,Effect on NFκB p65 activity,"[3]; 1 μM, U2932 cells, p<0.001",significantly inhibits
same,inhibition at 1 µM,[3]; [4],5.9 ± 0.49%
same,inhibition at 10 µM,"[3]; 48 h, KARPS-1160p cells (PBML)",5.4 ± 0.35%
same,inhibition at 1 µM,"[3]; 48 h, RIVA cells, 1 μM",19.3 ± 15.6%
same,inhibition at 10 µM,"[3]; 48 h, RIVA cells",41.7 ± 26.8%
same,inhibition at 1 µM,"[3]; 48 h, U2392 cells, 1 μM",40 ± 3.7%
same,inhibition at 10 µM,"[3]; 48 h, U2392 cells",47.9 ± 6.2%
same,inhibition at 1 µM,[3]; [5],-17.4 ± 13.4%
same,inhibition at 10 µM,[3]; [6],-15.8 ± 15%
same,inhibition at 1 µM,[3]; [7],27.6 ± 20.7%
same,inhibition at 10 µM,[3]; [8],22 ± 12.2%
same,inhibition at 1 µM,[3]; [9],14.1 ± 9%
same,inhibition at 10 µM,[3]; [10],49.7 ± 32.8%
